Laboratory results: patent US20250042891A1, “Compound containing structure of a heteroaromatic ring, pharmaceutical composition thereof and application thereof” (SHANGHAI YINGLI PHARMACEUTICAL CO., LTD, priority 2023, published 2025)
pIC50: −log10 of the molar value.

Tests used:
HCC1395 = assay: CTG assay for proliferation inhibition of cell lines; type: cell-based; settings: HCC1395, 7 days, CellTiter Glo
Experimental: (§1) The assay was conducted on either 384-well plates or 96-well plates. The procedures are as follows:
(§2) The cell suspensions were added to 384- or 96-well plates (384-well plate: 50 μL; 96-well plate: 100 μL) except for peripheral wells. The plates were incubated in a carbon dioxide incubator overnight, HCC1395, HCC1428 and NCI-H460 were placed in a carbon dioxide incubator of 5%, […] overnight. Prepared compounds (10 concentration gradients by serial 3-fold dilution) were added to the wells using the HPD300 micro-dosing instrument. The cell plates were incubated in a carbon dioxide incubator for 7 days. HCC1395, HCC1428 and NCI-H460 were incubated in a 5%, 37° CO2 incubator. On the day of plate measurement, 384- or 96-well plates were first equilibrated at room temperature for 10-30 minutes, then to the 384- or 96-well plate was added CellTiter Glo reagent (384-well plate: 25 μL; 96-well plate: 100 μL), shaken for 10 minutes away from light, and incubated for 10 minutes. The incubated plates were placed into Victor NIVO reader plates, and the pharmacodynamic inhibition curves were plotted and IC50 values were calculated using XLFit.

HCC1428 = assay: as above; type: cell-based; settings: HCC1428, 7 days, CellTiter Glo
Experimental: as §1, §2

NCI-H460 = assay: as above; type: cell-based; settings: NCI-H460, 7 days, CellTiter Glo
Experimental: as §1, §2

PARG (389-976) = PARG (389-976) (Homo sapiens (Human), UniProt Q86W56); assay: PARG enzyme inhibition assay (TR-FRET); type: biochemical; settings: class symbol; Bio PARylated His-TEV-PARP1 substrate, TR-FRET
Experimental: PARG in vitro assays were conducted in standard 384-well plates in a total volume of 15 μL. 5 μL of PARG (389-976) (manufactured by Chempartner Chemical Co., Ltd.) in buffer (50 mM Tris-HCL 7.5, 30 mM KCl, 1 mM EDTA, 3 mM DTT, tween-20 0.01%, BSA 0.025%) was added at a final concentration of 1.5 pM to the 384-well plates containing the compounds to be tested, which was incubated for 30 min at room temperature. To the above mixture was added 5 μL Bio PARylated His-TEV-PARP1(2-1014) substrate (manufactured by Chempartner Chemical Co., Ltd.) at a final concentration of 12 nM, after addition, the resulting mixture was incubated for 30 minutes at room temperature. Then to the mixture was added detection reagent (5 μL) which was buffered with 50 mM Tris-HCL 7.5, 30 mM KCl, 1 mM EDTA, 3 mM DTT, tween-20 0.01%, BSA 0.025%, and consisted of 3 μM of compound PDD00017273 and 9 nM Mab anti-6HIS XL665 (Cisbio: 61HISXLA) and 0.9 nM streptavidin affinity terbium cryptate (Cisbio:610SATLA), all at 3× working concentrations (final concentrations of 1 μM, 3 nM and 0.3 nM, respectively). After 120 min incubation in the dark at room temperature, TR-FRET signals were measured at Ex 340 and Em 665 and Em 615. The ratio for each well was calculated as Em 665/Em 615 and the compound inhibition rate was calculated based on the obtained data.

Chain of PARG (389-976) (Q86W56 389-976): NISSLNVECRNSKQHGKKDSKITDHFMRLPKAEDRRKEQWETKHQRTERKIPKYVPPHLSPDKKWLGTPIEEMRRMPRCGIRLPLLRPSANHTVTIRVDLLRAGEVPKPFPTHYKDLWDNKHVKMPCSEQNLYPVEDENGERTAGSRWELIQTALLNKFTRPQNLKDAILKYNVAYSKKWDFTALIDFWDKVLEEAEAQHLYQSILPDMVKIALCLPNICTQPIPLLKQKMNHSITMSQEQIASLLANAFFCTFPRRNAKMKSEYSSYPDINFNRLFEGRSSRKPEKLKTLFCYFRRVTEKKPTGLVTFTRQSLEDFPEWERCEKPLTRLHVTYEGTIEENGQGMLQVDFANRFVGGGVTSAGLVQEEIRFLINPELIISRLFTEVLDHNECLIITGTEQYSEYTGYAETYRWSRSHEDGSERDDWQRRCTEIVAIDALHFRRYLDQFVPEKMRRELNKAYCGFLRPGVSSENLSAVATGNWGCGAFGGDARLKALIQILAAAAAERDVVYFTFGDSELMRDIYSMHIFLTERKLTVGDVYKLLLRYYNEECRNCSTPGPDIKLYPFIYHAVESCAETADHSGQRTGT

CC(C)S(=O)(=O)N1CC=C(c2cc(S(=O)(=O)NC3(C#N)CC3)cc3c(-c4nnc(C(F)(F)F)s4)nn(CC(F)(F)F)c23)CC1 [Compound 58]
IC50 (HCC1395): 0.253 µM
IC50 (HCC1428): 0.201 µM
IC50 (NCI-H460): 0.216 µM
pIC50 (PARG (389-976)): 8.00 to 9.00

CC(C)S(=O)(=O)N1CC=C(c2cc(S(=O)(=O)NC3(C#N)CC3)cc3c(-c4nnc(C(F)(F)F)s4)nn(CC4COC4)c23)CC1 [Compound 60]
IC50 (HCC1395; Homo sapiens, 168 h): 0.181 µM
IC50 (HCC1428; Homo sapiens, 168 h): 0.0778 µM
IC50 (NCI-H460; Homo sapiens, 168 h): 0.115 µM
pIC50 (PARG (389-976)): 8.00 to 9.00

CC(C)S(=O)(=O)N1CC=C(c2cc(S(=O)(=O)NC3(C#N)CC3)cc3c(-c4ccc(C(F)F)nn4)nn(C)c23)CC1 [Compound 78]
IC50 (HCC1395): 0.5 µM
IC50 (HCC1428): 0.532 µM
IC50 (NCI-H460): 0.426 µM
pIC50 (PARG (389-976)): 8.00 to 9.00
